A value given as a limit tells only on which side of the number the result lay.

Data on two molecules can be found in ChEMBL document CHEMBL1158305, “Bastadin 20 and bastadin O-sulfate esters from Ianthella basta: novel modulators of the Ry1R FKBP12 receptor complex” (J Nat Prod, 1996).

The test addresses Ryanodine receptor 1 (Oryctolagus cuniculus, UniProt P11716). As to the kind of experiment: Displacement of [3H]ryanodine from Ry1R/FKBP12 receptor complex in rabbit sarcoplasmic reticulum. (In general: In a radioligand displacement assay an active substance lowers the binding of a labelled ligand.)

Chain of Ryanodine receptor 1 (P11716 whole entry): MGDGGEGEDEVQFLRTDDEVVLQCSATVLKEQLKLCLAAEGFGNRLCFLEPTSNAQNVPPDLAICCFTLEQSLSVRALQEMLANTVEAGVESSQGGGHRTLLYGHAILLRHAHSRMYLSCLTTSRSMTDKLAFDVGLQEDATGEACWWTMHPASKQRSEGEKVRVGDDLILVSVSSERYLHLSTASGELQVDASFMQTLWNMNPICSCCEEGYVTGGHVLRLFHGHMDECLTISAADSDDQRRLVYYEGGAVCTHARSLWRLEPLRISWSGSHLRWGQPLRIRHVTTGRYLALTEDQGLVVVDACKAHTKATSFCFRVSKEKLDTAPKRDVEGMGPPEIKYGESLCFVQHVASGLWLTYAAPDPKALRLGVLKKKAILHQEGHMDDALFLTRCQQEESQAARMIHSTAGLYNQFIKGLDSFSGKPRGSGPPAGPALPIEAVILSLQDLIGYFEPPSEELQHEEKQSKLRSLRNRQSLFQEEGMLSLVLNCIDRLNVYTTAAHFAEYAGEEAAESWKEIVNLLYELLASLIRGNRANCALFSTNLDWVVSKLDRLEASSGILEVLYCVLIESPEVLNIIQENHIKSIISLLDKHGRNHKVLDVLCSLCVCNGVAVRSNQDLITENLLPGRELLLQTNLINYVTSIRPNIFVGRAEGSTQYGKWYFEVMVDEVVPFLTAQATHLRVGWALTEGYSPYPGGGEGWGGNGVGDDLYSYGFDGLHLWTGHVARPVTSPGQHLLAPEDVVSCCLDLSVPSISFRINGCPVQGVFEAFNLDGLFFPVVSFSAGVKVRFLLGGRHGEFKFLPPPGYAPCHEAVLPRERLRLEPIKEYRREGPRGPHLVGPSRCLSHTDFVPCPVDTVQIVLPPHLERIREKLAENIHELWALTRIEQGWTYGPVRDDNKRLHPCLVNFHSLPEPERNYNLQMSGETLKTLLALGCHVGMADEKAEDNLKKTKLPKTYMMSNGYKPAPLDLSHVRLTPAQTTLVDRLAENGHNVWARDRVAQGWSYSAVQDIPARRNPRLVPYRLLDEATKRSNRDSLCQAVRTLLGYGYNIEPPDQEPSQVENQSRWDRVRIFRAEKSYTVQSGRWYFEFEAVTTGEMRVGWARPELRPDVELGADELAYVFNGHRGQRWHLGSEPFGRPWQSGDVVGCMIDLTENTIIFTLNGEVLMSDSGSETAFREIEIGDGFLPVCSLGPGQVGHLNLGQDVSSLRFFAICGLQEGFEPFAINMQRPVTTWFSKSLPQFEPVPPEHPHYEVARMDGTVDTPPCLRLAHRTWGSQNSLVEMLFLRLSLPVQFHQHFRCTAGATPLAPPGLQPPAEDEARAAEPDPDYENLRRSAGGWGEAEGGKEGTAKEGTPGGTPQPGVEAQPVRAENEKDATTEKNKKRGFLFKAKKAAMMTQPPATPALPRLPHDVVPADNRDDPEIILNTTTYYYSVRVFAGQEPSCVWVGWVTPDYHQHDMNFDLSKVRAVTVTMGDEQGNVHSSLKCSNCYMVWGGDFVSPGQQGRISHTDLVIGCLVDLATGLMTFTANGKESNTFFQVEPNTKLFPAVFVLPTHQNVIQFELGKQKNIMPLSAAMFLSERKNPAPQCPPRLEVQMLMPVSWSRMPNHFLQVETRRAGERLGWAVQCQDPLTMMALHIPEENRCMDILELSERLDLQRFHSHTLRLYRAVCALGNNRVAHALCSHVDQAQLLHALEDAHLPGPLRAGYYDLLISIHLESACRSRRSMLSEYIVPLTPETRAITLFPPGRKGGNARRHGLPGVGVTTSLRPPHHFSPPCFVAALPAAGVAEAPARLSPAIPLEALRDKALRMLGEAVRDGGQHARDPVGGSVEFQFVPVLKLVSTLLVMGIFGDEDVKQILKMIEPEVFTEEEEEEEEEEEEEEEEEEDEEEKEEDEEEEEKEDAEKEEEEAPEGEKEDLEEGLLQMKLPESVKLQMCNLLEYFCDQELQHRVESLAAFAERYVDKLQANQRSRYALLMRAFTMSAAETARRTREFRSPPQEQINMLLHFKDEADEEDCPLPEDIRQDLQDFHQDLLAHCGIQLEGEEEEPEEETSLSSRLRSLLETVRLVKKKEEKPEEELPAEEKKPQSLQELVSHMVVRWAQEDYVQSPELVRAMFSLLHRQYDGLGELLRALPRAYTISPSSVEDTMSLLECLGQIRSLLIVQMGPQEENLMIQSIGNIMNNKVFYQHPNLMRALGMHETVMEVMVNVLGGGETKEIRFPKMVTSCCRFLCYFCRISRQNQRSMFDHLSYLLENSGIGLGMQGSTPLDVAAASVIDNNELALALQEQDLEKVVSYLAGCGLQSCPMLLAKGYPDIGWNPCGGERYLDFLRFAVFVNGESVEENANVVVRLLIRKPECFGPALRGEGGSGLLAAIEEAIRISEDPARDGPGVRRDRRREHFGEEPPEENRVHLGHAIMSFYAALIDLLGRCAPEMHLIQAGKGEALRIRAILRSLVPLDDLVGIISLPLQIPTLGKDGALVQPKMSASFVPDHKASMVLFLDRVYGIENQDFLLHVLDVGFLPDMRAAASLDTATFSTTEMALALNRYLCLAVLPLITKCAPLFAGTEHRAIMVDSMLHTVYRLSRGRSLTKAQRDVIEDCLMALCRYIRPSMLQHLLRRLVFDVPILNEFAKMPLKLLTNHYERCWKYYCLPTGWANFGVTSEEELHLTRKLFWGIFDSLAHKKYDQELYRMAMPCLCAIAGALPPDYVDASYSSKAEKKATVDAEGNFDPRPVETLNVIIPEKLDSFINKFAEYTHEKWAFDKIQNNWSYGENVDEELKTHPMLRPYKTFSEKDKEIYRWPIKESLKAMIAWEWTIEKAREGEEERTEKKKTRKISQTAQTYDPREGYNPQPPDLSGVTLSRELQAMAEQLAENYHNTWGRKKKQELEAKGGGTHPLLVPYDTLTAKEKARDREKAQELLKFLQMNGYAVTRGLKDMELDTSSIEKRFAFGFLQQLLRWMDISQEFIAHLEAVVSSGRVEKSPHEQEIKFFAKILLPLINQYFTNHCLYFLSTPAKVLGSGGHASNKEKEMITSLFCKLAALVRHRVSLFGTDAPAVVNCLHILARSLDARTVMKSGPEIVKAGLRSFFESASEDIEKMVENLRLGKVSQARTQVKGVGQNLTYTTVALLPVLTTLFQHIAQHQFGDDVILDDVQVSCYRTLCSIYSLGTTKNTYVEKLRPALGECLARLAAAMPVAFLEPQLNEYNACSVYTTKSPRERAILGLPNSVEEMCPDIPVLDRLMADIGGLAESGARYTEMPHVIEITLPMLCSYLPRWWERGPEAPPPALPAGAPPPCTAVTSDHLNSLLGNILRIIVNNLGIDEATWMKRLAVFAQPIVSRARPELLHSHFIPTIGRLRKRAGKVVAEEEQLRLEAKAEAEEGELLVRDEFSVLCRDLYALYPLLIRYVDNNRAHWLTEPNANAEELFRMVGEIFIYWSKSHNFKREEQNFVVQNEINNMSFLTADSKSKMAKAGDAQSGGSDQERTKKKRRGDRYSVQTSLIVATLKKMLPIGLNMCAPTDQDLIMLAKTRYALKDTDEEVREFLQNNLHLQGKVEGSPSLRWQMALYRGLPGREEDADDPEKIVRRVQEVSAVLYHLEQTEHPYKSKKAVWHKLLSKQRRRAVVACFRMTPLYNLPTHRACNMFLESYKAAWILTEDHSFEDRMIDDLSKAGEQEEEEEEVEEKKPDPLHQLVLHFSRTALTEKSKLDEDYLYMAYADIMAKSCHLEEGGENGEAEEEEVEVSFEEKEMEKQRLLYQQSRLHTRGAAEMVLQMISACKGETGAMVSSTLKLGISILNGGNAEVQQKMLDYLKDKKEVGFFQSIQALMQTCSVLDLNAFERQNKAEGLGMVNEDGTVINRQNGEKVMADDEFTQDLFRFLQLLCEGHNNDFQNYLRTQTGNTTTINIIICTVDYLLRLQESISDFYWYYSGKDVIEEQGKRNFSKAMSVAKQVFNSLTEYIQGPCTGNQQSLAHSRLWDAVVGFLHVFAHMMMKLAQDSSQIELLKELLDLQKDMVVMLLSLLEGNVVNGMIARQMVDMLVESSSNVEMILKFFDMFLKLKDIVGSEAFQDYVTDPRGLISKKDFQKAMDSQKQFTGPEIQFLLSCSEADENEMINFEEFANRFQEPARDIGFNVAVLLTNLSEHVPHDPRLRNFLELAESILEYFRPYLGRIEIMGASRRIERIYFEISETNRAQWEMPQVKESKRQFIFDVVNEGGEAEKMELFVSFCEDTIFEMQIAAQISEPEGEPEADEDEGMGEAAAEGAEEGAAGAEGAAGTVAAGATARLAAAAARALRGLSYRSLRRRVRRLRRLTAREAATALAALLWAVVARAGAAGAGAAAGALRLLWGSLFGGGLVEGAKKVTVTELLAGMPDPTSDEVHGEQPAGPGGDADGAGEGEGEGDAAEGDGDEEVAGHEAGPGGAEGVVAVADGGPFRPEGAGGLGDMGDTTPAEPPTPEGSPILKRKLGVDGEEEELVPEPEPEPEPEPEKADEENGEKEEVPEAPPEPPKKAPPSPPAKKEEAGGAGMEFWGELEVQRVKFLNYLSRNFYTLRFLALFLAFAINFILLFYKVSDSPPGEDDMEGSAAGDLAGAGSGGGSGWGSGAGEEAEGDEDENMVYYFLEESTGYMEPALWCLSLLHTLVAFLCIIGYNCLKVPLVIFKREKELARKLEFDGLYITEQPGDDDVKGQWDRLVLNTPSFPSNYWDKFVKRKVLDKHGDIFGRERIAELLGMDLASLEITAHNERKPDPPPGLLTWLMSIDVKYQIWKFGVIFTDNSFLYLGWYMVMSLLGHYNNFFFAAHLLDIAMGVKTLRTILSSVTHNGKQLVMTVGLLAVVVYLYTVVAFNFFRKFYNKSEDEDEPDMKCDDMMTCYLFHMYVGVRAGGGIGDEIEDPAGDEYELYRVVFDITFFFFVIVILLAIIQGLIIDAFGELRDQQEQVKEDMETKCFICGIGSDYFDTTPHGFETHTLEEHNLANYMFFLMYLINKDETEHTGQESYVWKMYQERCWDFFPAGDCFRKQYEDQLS

Usually EC50 stands for the midpoint of the concentration-response curve. Low values mean higher potency in that assay, high ones lower potency in that assay. Molecule `O=C1N/C=C/c2ccc(c(Br)c2)Oc2cc(cc(Br)c2OS(=O)(=O)O)CCNC(=O)/C(=N/O)Cc2ccc(c(Br)c2)Oc2cc(cc(Br)c2OS(=O)(=O)O)C/C1=N\O` yielded an EC50 of 13.6 µM. This lies in the double-digit micromolar range.
Under `O=C1NCCc2ccc(c(Br)c2)Oc2cc(cc(Br)c2O)CCNC(=O)/C(=N/O)Cc2cc(Br)c(O)c(c2)Oc2c(Br)cc(cc2Br)C/C1=N\O` [BASTADIN 19] stands above 100 µM.
